The source made the active and inactive calls.
Key:
[1] = test system: Streptococcus sp. 'group A'; experiment: Streptococcus pyogenes SK(-)GAS viability under kanamycin – luminescence, BacTiterGlo, confirmation, counter-screen for streptokinase expression inhibitor project, dose response (AID 1900); type: functional, organism-based
BJ [2] = experiment: BJ-TERT fibroblast viability loss – cell-based, RAS-independent, luminescence, dose response (AID 1933); type: functional; conditions: Homo sapiens
Beta-galactosidase = Beta-galactosidase (Escherichia coli, UniProt Q8VNN2); experiment: PubChem AID 485352; type: functional
BJ [3] = experiment: cells; type: functional, cell-based; conditions: Homo sapiens
[4] = Trypanosoma cruzi growth suppression in host cells – NIH3T3 host cells, beta-gal luminescence, confirmation (AID 2044); type: functional, cell-based;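 also: intracellular parasites grown in NIH/3T3 mouse fibroblasts as host cells; luminescent beta-galactosidase reporter signal from transgenic T. cruzi replicating inside host cells; inhibitors lower the luminescence signal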
[5] = target: T1, Type-1 angiotensin II receptor (Homo sapiens, UniProt P30556); experiment: antagonism of angiotensin II type 1 receptor – cell-based, uHTS hits, selectivity assay for APJ receptor antagonist project, dose response (AID 463214); type: functional;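 also: antagonist potency against angiotensin II stimulated AT1 response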
T1 sequence (P30556 whole entry): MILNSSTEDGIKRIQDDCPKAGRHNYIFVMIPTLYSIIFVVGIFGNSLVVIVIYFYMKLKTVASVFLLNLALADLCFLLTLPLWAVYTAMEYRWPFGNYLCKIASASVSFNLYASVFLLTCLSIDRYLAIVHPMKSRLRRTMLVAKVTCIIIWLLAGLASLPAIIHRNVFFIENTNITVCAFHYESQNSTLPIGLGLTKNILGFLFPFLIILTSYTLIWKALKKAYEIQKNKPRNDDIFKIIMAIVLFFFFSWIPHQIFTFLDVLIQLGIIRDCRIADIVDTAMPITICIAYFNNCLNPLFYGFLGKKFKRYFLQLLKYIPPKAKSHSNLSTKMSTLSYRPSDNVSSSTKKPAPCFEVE

[6] = NIH3T3 cell viability loss – ATP luminescence, mouse fibroblasts, counter-screen, dose response (AID 2010); type: functional, cell-based;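 also: cells exposed to compound for about 90 hours before reading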
BJ [7] = experiment: BJ-TERT-LT-ST fibroblast viability loss – cell-based, RAS-independent, luminescence, dose response (AID 1935); type: functional; conditions: Homo sapiens;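 also: BJ fibroblasts immortalized with TERT plus LT and ST oncogenes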
[8] = DRD fibroblast viability loss – cell-based, non-viral oncogenic, luminescence, dose response (AID 1934); type: functional; conditions: Homo sapiens
Streptococcus = experiment: GAS UMAA2166 growth inhibition – luminescence, BacTiterGlo, counter-screen for streptokinase expression inhibitor project, dose response (AID 1915); type: functional, organism-based;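 also: potency for reduction of bacterial viability or growth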
Nonstructural protein 1 = Nonstructural protein 1 (Influenza A virus, UniProt Q194T2); type: functional, Influenza A virus (A/California/07/2009(H1N1))
[9] = target: T2, Replicative DNA helicase DnaB (Mycobacterium tuberculosis, UniProt P9WMR3); experiment: DnaB intein splicing inhibitors, dose response, biochemical, cell-free fluorescence (AID 449749); type: functional
T2 sequence (P9WMR3 whole entry): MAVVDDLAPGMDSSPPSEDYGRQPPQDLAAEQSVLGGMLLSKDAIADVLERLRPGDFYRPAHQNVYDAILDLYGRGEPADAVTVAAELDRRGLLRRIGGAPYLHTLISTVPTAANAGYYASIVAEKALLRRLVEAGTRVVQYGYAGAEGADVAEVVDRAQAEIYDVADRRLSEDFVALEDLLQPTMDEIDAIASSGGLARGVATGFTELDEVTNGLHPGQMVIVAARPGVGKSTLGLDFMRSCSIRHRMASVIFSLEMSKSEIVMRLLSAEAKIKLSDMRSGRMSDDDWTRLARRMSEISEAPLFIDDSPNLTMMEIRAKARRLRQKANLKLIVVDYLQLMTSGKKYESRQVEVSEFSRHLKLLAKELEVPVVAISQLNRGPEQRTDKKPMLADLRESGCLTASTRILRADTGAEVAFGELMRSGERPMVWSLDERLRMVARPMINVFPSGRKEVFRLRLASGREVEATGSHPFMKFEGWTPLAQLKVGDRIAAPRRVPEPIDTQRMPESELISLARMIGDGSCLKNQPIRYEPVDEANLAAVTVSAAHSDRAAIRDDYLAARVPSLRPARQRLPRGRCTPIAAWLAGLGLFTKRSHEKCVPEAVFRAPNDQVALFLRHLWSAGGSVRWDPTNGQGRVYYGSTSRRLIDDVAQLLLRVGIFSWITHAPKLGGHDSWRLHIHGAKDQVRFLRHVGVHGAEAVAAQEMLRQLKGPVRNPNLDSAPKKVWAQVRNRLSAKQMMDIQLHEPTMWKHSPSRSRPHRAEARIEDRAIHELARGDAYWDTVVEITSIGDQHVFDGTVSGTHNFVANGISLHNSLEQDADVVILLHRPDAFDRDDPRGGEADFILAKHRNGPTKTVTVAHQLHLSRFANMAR

Protein RecA = target: T3, Protein RecA (Mycobacterium tuberculosis, UniProt P9WHJ3); experiment: Fluorescence Cell-Free Homogeneous Dose Retest to Identify Inhibitors of RecA-Intein Splicing Activity. [Related pubchem assays (depositor defined):AID2097, AID2223, AID489010, AID492950]; type: functional
T3 sequence (P9WHJ3 whole entry): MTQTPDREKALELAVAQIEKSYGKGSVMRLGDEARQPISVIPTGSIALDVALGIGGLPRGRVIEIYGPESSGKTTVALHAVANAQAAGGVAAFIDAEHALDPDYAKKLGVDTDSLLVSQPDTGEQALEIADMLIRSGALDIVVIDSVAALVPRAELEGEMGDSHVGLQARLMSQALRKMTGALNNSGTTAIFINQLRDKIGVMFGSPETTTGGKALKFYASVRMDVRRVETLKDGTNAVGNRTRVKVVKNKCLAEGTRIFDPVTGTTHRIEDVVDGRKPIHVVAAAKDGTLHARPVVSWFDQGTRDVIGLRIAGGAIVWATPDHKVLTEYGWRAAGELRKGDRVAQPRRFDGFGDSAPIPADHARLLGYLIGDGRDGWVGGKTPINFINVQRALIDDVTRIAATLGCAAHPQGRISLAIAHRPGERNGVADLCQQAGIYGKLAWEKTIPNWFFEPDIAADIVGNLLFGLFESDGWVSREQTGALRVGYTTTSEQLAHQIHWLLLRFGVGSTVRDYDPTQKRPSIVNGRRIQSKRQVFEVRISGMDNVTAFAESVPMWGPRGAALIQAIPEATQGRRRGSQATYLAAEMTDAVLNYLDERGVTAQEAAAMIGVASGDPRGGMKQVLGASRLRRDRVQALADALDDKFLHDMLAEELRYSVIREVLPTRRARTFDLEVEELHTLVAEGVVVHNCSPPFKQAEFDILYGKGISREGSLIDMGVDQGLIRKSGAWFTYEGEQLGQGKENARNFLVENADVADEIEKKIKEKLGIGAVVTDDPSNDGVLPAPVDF

INS1 = experiment: INS-1E survival protection against cytokine death – cell-based, luminescence, retest, dose response (AID 449756); type: functional; conditions: Rattus norvegicus, INS1;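 also: cell death triggered by IL-1 beta plus TNF-alpha plus IFN-gamma mixture; protective hits raise ATP signal compared with cytokine alone wells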
[10] = IC50 of Artemis nuclease activity blockers – biochemical, fluorescence intensity, dose response (AID 720701); type: functional;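 also: Artemis endonuclease enzyme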
[11] = P. falciparum Dd2 growth inhibitors, dose response, SYBR Green, cherry-picked samples (AID 1159567); type: functional, cell-based
[12] = toxicity to human hepatoma HepG2 cells – cell-based, cherry-picked samples, cytotoxicity control, dose response (AID 1159577); type: functional
Kallikrein-7 = Kallikrein-7 (Homo sapiens, UniProt P49862); experiment: Fluorescence Intensity-based biochemical primary high throughput dose response assay to identify activators of kallikrein-7 (K7) zymogen.
[13] = target: Glucose-6-phosphate 1-dehydrogenase (Homo sapiens, UniProt P11413); experiment: inhibition of Homo sapiens G6PD, dose series – biochemical, fluorescence, selectivity assay for P. falciparum G6PD inhibitor project, dose response (AID 504792); type: functional
[14] = target: T4, Small ubiquitin-related modifier 1 (Homo sapiens, UniProt P63165); experiment: SUMO1 protein interaction blockers, potency – biochemical, fluorescence polarization, uHTS hits, dose response (AID 624382); type: functional; conditions: read-out: IC50_Mean
[15] = target: T4, Small ubiquitin-related modifier 1; experiment: SUMO1 protein-protein binding blockers, potency – biochemical, FRET, dose response (AID 624383); type: functional; conditions: read-out: IC50_Mean
[16] = viability loss in HeLa cells – cytotoxicity control for MgcRacGAP inhibitor project, dose response (AID 624300); type: functional
[17] = target: T5, Rac GTPase-activating protein 1 (Homo sapiens, UniProt Q9H0H5); experiment: blockers of MgcRacGAP-driven Rac1 GTP hydrolysis – biochemical, ADP Hunter fluorescence, primary and confirmatory, confirmation (AID 624330); type: functional
T5 sequence (Q9H0H5 whole entry): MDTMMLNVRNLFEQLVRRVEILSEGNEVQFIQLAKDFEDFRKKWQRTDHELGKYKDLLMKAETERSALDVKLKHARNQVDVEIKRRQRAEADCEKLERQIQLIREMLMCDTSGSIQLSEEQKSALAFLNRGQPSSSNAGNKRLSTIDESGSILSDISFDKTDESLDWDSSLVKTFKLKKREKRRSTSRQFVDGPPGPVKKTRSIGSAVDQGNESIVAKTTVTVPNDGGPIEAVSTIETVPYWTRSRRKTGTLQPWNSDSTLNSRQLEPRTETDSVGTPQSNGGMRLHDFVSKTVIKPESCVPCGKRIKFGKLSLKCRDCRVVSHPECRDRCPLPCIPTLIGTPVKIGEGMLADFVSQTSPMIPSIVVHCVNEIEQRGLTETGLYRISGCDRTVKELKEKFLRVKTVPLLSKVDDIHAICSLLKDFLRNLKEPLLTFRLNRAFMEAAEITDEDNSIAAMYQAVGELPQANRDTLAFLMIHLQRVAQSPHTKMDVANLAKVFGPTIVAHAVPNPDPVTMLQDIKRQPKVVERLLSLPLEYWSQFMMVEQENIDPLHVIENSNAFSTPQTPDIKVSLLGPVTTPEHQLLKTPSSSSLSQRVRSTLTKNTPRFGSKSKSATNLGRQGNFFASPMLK

[18] = target: T6, DNA repair protein RAD52 homolog (Homo sapiens, UniProt P43351); type: functional, biochemical
T6 sequence (P43351 whole entry): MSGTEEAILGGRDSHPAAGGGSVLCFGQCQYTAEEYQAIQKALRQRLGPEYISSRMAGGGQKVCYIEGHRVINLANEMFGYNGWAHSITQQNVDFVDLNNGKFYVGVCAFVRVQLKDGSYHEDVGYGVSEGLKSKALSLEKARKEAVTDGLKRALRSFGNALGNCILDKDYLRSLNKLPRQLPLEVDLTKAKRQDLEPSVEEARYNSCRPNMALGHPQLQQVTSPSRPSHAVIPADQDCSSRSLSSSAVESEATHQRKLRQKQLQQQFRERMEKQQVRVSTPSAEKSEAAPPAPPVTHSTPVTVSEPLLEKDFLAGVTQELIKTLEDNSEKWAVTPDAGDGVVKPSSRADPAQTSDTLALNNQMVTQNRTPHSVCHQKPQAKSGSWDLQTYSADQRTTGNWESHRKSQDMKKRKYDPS

[19] = viability loss in THP-1 monocytes – THP-1 cells, cytotoxicity control for Vif-APOBEC3G degradation inhibitor project, dose response (AID 1117359); type: functional; conditions: THP-1
[20] = target: Glutathione-S-transferase (Schistosoma japonicum, UniProt Q26513); experiment: GST-antibody interaction or FRET quenching – biochemical, TR-FRET, artefact control for Vif-APOBEC3G degradation inhibitor project, dose response (AID 1117362); type: functional
[21] = target: RNA-editing ligase 1, mitochondrial (Trypanosoma brucei brucei, UniProt P86926); experiment: inhibition of trypanosome RNA editing ligase – biochemical, fluorescence, Trypanosoma brucei, dose response (AID 1117295); type: functional
RNA-editing ligase 1, mitochondrial, sequence (P86926 whole entry): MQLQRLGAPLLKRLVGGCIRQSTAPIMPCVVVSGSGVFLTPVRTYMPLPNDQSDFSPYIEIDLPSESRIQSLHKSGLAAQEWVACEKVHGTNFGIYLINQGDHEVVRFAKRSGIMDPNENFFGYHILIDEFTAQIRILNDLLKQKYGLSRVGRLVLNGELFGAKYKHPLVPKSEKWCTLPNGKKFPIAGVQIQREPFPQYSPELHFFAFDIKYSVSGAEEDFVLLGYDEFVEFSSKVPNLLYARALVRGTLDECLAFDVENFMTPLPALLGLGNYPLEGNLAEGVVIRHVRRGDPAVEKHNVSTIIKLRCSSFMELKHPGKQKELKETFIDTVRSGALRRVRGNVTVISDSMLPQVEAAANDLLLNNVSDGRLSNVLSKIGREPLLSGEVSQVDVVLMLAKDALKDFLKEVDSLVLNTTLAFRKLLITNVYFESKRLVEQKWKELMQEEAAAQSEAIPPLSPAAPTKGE

T4 sequence (P63165 whole entry): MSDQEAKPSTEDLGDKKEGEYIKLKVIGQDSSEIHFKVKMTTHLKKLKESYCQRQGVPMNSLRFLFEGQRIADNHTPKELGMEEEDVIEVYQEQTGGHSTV
Beta-galactosidase, sequence (Q8VNN2 whole entry): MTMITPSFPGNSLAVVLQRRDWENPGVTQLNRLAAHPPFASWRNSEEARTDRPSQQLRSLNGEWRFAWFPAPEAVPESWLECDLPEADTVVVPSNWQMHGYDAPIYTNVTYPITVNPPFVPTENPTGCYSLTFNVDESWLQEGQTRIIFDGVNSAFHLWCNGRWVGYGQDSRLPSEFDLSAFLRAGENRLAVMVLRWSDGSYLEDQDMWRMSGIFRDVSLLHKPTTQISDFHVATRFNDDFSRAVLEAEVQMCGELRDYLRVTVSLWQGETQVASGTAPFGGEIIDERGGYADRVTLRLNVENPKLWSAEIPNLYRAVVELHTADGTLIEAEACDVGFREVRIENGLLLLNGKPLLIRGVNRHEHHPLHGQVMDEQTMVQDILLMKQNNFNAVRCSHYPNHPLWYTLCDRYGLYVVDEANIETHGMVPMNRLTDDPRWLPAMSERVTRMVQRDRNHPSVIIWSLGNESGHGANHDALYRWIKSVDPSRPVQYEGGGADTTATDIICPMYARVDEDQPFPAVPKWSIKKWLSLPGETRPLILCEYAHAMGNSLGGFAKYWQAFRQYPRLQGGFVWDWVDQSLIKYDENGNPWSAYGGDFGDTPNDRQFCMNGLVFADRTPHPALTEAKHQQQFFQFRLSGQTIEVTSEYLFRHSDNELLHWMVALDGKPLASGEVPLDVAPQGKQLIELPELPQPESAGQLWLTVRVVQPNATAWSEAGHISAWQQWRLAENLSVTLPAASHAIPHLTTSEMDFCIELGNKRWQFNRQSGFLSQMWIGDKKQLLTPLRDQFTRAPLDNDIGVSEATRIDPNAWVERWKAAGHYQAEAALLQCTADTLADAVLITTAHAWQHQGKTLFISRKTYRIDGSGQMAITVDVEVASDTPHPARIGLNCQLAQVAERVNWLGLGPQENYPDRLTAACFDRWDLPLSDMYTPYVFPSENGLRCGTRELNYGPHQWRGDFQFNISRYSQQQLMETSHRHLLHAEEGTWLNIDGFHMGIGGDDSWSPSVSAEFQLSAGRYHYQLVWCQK
Kallikrein-7, sequence (P49862 whole entry): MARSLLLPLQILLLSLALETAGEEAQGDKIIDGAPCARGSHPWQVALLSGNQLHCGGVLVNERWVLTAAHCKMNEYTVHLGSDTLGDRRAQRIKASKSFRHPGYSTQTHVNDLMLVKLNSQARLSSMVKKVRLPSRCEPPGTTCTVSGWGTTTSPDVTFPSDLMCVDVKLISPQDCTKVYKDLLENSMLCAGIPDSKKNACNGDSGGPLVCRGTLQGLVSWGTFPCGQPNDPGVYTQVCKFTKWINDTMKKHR
Glutathione-S-transferase, sequence (Q26513 whole entry): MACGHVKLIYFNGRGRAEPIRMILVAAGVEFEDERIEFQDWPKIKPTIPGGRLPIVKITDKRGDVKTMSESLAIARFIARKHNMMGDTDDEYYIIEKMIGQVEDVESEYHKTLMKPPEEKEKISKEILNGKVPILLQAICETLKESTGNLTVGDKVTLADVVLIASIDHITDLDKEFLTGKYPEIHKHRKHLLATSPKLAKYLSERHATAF
Nonstructural protein 1, sequence (Q194T2 whole entry): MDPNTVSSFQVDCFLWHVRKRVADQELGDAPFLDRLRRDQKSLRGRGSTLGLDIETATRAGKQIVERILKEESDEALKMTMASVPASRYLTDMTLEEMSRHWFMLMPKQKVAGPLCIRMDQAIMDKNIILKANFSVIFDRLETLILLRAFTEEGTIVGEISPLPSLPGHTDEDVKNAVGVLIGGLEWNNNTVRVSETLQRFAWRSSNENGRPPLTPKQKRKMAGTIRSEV
Glucose-6-phosphate 1-dehydrogenase, sequence (P11413 whole entry): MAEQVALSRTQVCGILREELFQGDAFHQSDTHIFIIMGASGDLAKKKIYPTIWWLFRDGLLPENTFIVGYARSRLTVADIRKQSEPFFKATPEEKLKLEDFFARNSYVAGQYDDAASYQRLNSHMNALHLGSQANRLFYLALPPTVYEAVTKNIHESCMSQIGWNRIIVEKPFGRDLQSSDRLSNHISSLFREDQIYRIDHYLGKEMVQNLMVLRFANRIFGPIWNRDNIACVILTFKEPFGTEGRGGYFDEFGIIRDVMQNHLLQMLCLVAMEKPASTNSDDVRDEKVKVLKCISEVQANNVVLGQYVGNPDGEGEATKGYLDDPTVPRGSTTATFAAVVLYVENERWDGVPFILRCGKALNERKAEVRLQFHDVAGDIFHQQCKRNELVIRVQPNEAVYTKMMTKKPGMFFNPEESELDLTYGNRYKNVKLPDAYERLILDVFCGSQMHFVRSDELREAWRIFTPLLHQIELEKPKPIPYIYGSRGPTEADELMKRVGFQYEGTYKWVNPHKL

c1ccc(-c2nc(N3CCCCCC3)c3ccccc3n2)nc1
EC50 [1]: 0.947 µM (active) | EC50 (BJ [2]): 9.59 µM (active) | EC50 (Beta-galactosidase): > 40 µM (inactive) | EC50 (BJ [3]): 25.7 µM (active) | EC50 [4]: 0.845 µM (active) | IC50 [5]: > 40 µM (not active) | EC50 [6]: 2.24 µM (active) | EC50 (BJ [7]): 50.7 µM (inconclusive) | EC50 [8]: 21 µM (active) | EC50 (Streptococcus): 1.19 µM (active) | IC50 (Nonstructural protein 1): 23 µM (active) | AC50 [9]: 36.2 µM (active) | EC50 (Protein RecA): > 380 µM (inconclusive) | AC50 (INS1): 1.8 µM (active) | IC50 [10]: 4.71 µM (active)

N#C[C@H]1[C@@H](c2ccc(C#CC3CCCC3)cc2)[C@@H](CO)N1S(=O)(=O)c1ccccc1
AC50 [11]: 3.62 µM (active) | AC50 [12]: 24.8 µM (active)

COc1ccc2oc(=O)c(C(=O)N3CCN(C(=O)c4ccccc4)CC3)cc2c1
EC50 (Kallikrein-7): > 69.5 µM (inactive)

Cc1cc(C)c2c(=N)c3ccccc3n(CCCCCCCCn3c4ccccc4c(=N)c4c(C)cc(C)nc43)c2n1
IC50 [13]: 29 µM (inactive) | IC50 [14]: > 66.6 µM (inactive) | IC50 [15]: 4.83 µM (active) | CC50 [16]: 20.4 µM (active) | IC50 [17]: 26.3 µM (active) | AC50 [18]: < 0.364 µM (active) | CC50 [19]: 5.65 µM (active) | IC50 [20]: 2.4 µM (active)

Cc1cc(O)c2c(c1)C(=O)[C@@]13C(=C(O)[C@H]4C(O)[C@@H]1[C@H]1C(O)[C@@H]3C(O)=C3C(=O)c5c(O)cc(C)cc5C(=O)[C@@]314)C2=O (some centres not stated)
IC50 [21]: 4.1 µM (active)

— ChEMBL document CHEMBL1201862, “PubChem BioAssay data set” (2004)
